Experimental findings from patent publication US20230219921A1, “KCNT1 INHIBITORS AND METHODS OF USE” (Praxis Precision Medicines, Inc., priority 2020, published 2023) are described below.

The experiment addresses T1, KCNT1 (KNa1.1, Slack) (Homo sapiens, UniProt Q5JUK3).
T1 construct: expressed in transfected cells; host or cells: HEK-TREX (tetracycline-inducible HEK cell line)
T1 sequence (Q5JUK3 1-1230): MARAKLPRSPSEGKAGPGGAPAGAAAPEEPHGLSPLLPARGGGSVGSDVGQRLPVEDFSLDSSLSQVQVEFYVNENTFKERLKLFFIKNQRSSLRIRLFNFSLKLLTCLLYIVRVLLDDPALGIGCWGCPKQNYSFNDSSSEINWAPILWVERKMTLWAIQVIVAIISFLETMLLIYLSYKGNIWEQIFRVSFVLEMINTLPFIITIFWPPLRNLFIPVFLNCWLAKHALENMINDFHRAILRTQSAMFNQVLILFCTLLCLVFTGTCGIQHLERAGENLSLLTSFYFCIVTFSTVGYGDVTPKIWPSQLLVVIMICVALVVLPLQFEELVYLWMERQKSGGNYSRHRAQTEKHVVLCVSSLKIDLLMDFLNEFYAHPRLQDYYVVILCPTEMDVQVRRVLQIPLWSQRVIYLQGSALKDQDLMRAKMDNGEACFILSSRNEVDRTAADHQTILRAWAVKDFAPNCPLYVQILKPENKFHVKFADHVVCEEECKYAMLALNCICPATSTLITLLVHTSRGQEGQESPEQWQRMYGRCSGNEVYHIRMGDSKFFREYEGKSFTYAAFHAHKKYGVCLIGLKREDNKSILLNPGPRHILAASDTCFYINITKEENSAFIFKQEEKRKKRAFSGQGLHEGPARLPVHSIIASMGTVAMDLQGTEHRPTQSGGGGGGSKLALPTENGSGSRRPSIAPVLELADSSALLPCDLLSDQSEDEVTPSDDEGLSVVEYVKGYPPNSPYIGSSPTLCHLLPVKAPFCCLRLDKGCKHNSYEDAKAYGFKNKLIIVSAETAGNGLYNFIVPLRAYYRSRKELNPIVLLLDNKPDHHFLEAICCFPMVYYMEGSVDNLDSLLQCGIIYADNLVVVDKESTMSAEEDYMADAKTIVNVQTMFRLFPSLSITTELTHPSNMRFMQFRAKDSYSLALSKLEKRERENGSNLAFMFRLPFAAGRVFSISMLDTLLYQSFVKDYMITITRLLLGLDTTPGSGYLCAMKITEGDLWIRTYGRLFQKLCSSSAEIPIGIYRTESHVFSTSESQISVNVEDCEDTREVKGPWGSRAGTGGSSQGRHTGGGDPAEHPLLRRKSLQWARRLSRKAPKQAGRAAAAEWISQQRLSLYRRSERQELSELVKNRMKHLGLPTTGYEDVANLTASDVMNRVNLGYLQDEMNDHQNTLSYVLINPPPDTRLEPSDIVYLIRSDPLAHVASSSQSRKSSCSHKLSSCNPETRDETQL
Nature of the experiment: KCNT1 patch clamp assay (SyncroPatch 384PE automated patch clamp). The class given is cell-based. To be noted: tetracycline inducible cell line (HEK-TREX); perforated patch mode; step from -80 mV to 0 mV; room temperature; read-out: KCNT1-WT IC50. On the procedure: Inhibition of KCNT1 (KNa1.1, Slack) was evaluated using a tetracycline inducible cell line (HEK-TREX). Currents were recorded using the SyncroPatch 384PE automated, patch clamp system. Pulse generation and data collection were performed with PatchController384 V1.3.0 and DataController384 V1.2.1 (Nanion Technologies). The access resistance and apparent membrane capacitance were estimated using built-in protocols. Current were recorded in perforated patch mode (10 μM escin) from a population of cells. The cells were lifted, triturated, and resuspended at 800,000 cells/ml. The cells were allowed to recover in the cell hotel prior to experimentation. Currents were recorded at room temperature. The external solution contained the following (in mM): NaCl 105, NMDG 40, KCl 4, MgCl2 1, CaCl2 5 and HEPES 10 (pH=7.4, Osmolarity ˜300 mOsm). The extracellular solution was used as the wash, reference and compound delivery solution. The internal solution contained the following (in mM): NaCl 70, KF 70, KCl 10, EGTA 5, HEPES 5 and Escin 0.01 (pH=7.2, Osmolarity ˜295 mOsm). Escin is made at a 5 mM stock in water, aliquoted, and stored at −20° C. The compound plate was created at 2× concentrated in the extracellular solution. The compound was diluted to 1:2 when added to the recording well. The amount of DMSO in the extracellular solution was held constant at the level used for the highest tested concentration. A holding potential of −80 mV with a 100 ms step to 0 mV was used. Mean current was measured during the step to 0 mV. […] The average mean current from 3 sweeps was calculated and the % inhibition of each compound was calculated. The % Inhibition as a function of the compound concentration was fit with a Hill equation to derive IC50, slope, min and max parameters. If KCNT1 inhibition was less than 50% at the highest tested concentration or if an IC50 could not be calculated, then a percent inhibition was reported in place of the IC50.
In this table, “A” indicates IC50 of less than or equal to 1 μM; “B” indicates inhibition of between 1 μM to 20 μM; and “C” indicates inhibition of greater than or equal to 20 μM.

A word on the IC50: it is the concentration that inhibits the measured activity by half. On to `Cc1cc(C(F)(F)F)ncc1CNC(=O)c1ccc(S(C)(=O)=O)s1` [Compound 54, N-((4-methyl-6-(trifluoromethyl)pyridin-3-yl)methyl)-5-(methylsulfonyl)thiophene-2-carboxamide], for which the IC50 was in the range of 1000 to 20000 nM. In the case of `CNS(=O)(=O)c1ccc(C(=O)NCc2ccc(C(C)(C)C)cc2)s1` [Compound 28, N-(4-(tert-butyl)benzyl)-5-(N-methylsulfamoyl)thiophene-2-carboxamide], the IC50 was at most 1000 nM. `CNS(=O)(=O)c1ccc(C(=O)NCc2ccc(Cl)cc2OC)s1` [Compound 13, N-(4-chloro-2-methoxybenzyl)-5-(N-methylsulfamoyl)thiophene-2-carboxamide]: the 50% inhibitory concentration (IC50) is at most 1000 nM.

In the case of `CNS(=O)(=O)c1ccc(C(=O)NCc2cccc(Cl)c2)s1` [Compound 18, N-(3-chlorobenzyl)-5-(N-methylsulfamoyl)thiophene-2-carboxamide], the IC50 was at most 1000 nM.

In the case of `CS(=O)(=O)c1ccc(C(=O)NCc2ccc(Cl)cc2Cl)s1` [Compound 6, N-(2,4-dichlorobenzyl)-5-(methylsulfonyl)thiophene-2-carboxamide], the IC50 is at most 1000 nM. On to `CNS(=O)(=O)c1ccc(C(=O)NCc2ccc(Cl)cc2O)s1` [Compound 14, N-(4-chloro-2-hydroxybenzyl)-5-(N-methylsulfamoyl)thiophene-2-carboxamide], for which the IC50 is at most 1000 nM. For `CS(=O)(=O)c1ccc(C(=O)NCc2ccc(C3(C(F)(F)F)CC3)cc2)s1` [Compound 37, 5-(methylsulfonyl)-N-(4-(1-(trifluoromethyl)cyclopropyl)benzyl)thiophene-2-carboxamide], the IC50 is at most 1000 nM. As to `CNS(=O)(=O)c1ccc(C(=O)NCc2ccc(Cl)cc2C(F)(F)F)s1` [Compound 8, N-(4-chloro-2-(trifluoromethyl)benzyl)-5-(N-methylsulfamoyl)thiophene-2-carboxamide], the IC50 is at most 1000 nM. Under `CC(C)(C#N)c1ccc(CNC(=O)c2ccc(S(C)(=O)=O)s2)cc1` [Compound 39, N-(4-(2-cyanopropan-2-yl)benzyl)-5-(methylsulfonyl)thiophene-2-carboxamide] stands 1000 to 20000 nM; under `CS(=O)(=O)c1ccc(C(=O)NCc2ccc(N3CCCC3)cc2)s1` [Compound 23, 5-(methylsulfonyl)-N-(4-(pyrrolidin-1-yl)benzyl)thiophene-2-carboxamide], at least 20000 nM.

Consider `CNS(=O)(=O)c1ccc(C(=O)NCc2ccc(Cl)cc2Br)s1` [Compound 11, N-(2-bromo-4-chlorobenzyl)-5-(N-methylsulfamoyl)thiophene-2-carboxamide], for which the IC50 is at most 1000 nM. For `CS(=O)(=O)c1ccc(C(=O)NCc2ccc(C(F)(F)F)cn2)s1` [Compound 48, 5-(methylsulfonyl)-N-((5-(trifluoromethyl)pyridin-2-yl)methyl)thiophene-2-carboxamide], the IC50 is 1000 to 20000 nM. Regarding `CS(=O)(=O)c1ccc(C(=O)NCc2ccc(C(F)(F)F)nc2)s1` [Compound 46, 5-(methylsulfonyl)-N-((6-(trifluoromethyl)pyridin-3-yl)methyl)thiophene-2-carboxamide], the IC50 was in the range of 1000 to 20000 nM.

`CNS(=O)(=O)c1ccc(C(=O)NCc2ccc(C3CC3)cc2)s1` [Compound 26, N-(4-cyclopropylbenzyl)-5-(N-methylsulfamoyl)thiophene-2-carboxamide]: the IC50 was at most 1000 nM. With `CNS(=O)(=O)c1ccc(C(=O)NCc2ccc(C(C)(C)C#N)cc2)s1` [Compound 38, N-(4-(2-cyanopropan-2-yl)benzyl)-5-(N-methylsulfamoyl)thiophene-2-carboxamide], the 50% inhibitory concentration (IC50) is 1000 to 20000 nM.

As for `CS(=O)(=O)c1ccc(C(=O)NCc2ccc(C3CC3)cc2)s1` [Compound 31, N-(4-cyclopropylbenzyl)-5-(methylsulfonyl)thiophene-2-carboxamide], the IC50 was at most 1000 nM. In the case of `CNS(=O)(=O)c1ccc(C(=O)NCc2ccc(NC(C)C)cc2)s1` [Compound 40, N-(4-(isopropylamino)benzyl)-5-(N-methylsulfamoyl)thiophene-2-carboxamide], the IC50 was at least 20000 nM. `CCS(=O)(=O)c1ccc(C(=O)NCc2ccc(Cl)cc2Cl)s1` [Compound 16, N-(2,4-dichlorobenzyl)-5-(ethylsulfonyl)thiophene-2-carboxamide]: the IC50 was at most 1000 nM. Turning to `CC(C)c1ccc(CNC(=O)c2ccc(S(C)(=O)=O)s2)cc1` [Compound 24, N-(4-isopropylbenzyl)-5-(methylsulfonyl)thiophene-2-carboxamide], the concentration for half-maximal inhibition (IC50) is at most 1000 nM. To `CNS(=O)(=O)c1ccc(C(=O)NCc2ccc(C3(C(F)(F)F)CC3)cc2)s1` [Compound 36, 5-(N-methylsulfamoyl)-N-(4-(1-(trifluoromethyl)cyclopropyl)benzyl)thiophene-2-carboxamide] belongs at most 1000 nM; to `CNS(=O)(=O)c1ccc(C(=O)NCc2ccc(Cl)cc2F)s1` [Compound 10, N-(4-chloro-2-fluorobenzyl)-5-(N-methylsulfamoyl)thiophene-2-carboxamide], at most 1000 nM. Take `Cc1cc(C(F)(F)F)ccc1CNC(=O)c1ccc(S(C)(=O)=O)s1` [Compound 44, N-(2-methyl-4-(trifluoromethyl)benzyl)-5-(methylsulfonyl)thiophene-2-carboxamide]: the IC50 is at most 1000 nM. Consider `CNS(=O)(=O)c1ccc(C(=O)N[C@H](C)c2ccc(Cl)cc2Cl)s1` [Compound 1, (R)—N-(1-(2,4-dichlorophenyl)ethyl)-5-(N-methylsulfamoyl)thiophene-2-carboxamide], for which the IC50 lay in the range of 1000 to 20000 nM. As for `CNS(=O)(=O)c1ccc(C(=O)NCc2ccc(Cl)cc2Cl)s1` [Compound 3, N-(2,4-dichlorobenzyl)-5-(N-methylsulfamoyl)thiophene-2-carboxamide], the IC50 was at most 1000 nM. `CNS(=O)(=O)c1ccc(C(=O)N[C@H](C)c2ccc(Cl)cc2)s1` [Compound 4, (R)—N-(1-(4-chlorophenyl)ethyl)-5-(N-methylsulfamoyl)thiophene-2-carboxamide]: the IC50 is at most 1000 nM. To `COCCS(=O)(=O)c1ccc(C(=O)NCc2ccc(C(F)(F)F)cc2)s1` [Compound 52, 5-((2-methoxyethyl)sulfonyl)-N-(4-(trifluoromethyl)benzyl)thiophene-2-carboxamide] belongs at most 1000 nM.
